Source: US20240101535A1, “DIHYDROISOQUINOLINONE DERIVATIVE AND APPLICATION THEREOF” (ETERN BIOPHARMA (SHANGHAI) CO., LTD., priority 2020, published 2024)
pIC50: −log10 of the molar value. Where a name gives a salt, the structure may show the parent alone.

How the values were obtained:
[1] = biological target: WDR5 protein (22-334aa) with MLL1 polypeptide (3672-3773aa) (Homo sapiens, UniProt P61964); experiment: WDR5-MLL PPI inhibitory activity test (HTRF); type: binding; details: His-tagged WDR5 and biotin-tagged MLL1 polypeptide
Source text: Test Example 1: WDR5-MLL PPI Inhibitory Activity Test
Effect of the compounds on WDR5 (WD Repeat Domain 5) and MLL1 (mixed-lineage leukemia 1) peptides at molecular level.
The effect of the compound on the interaction of WDR5 protein (22-334aa) with MLL1 polypeptide (3672-3773aa) was detected by HTRF (Homogeneous Time-Resolved Fluorescence) technology. When the N-terminal His-tagged WDR5 recognized by the Anti-6His-Eu cryptate donor interacts with the biotin-tagged MLL1 polypeptide recognized by the streptavidin-APC receptor, the donor and acceptor are pulled close enough to produce fluorescence resonance energy transfer (FRET). […] Therefore, the decrease in FRET signal can reflect the compound's inhibition on the interaction of WDR5 with MLL1 polypeptide.
The compound to be tested was diluted 3-fold with DMSO. […] Then the compound was diluted with reaction buffer (25 mM HEPES pH=7.5, 100 mM NaCl, 0.05% Tween 20) to control the final concentration of DMSO at 0.5%. In a 384-well plate, 1 μL of compound and 3 μL of 42 nM WDR5 protein were added, centrifuged at 1000 rpm for 1 min, incubated at room temperature for 60 min, followed by adding 3 μL of 333 nM MLL1 polypeptide with incubation at room temperature for 10 min, and followed by adding 3 μL of a mixed liquid of Anti-6His-Eu cryptate and streptavidin-APC with centrifugation at 1000 rpm for 1 mi and incubation at room temperature protected from light for 60 min, using a multifunction microplate reader (EnVision®2105) to read the signal. The following controls were set up per plate: control group (1 μL with 5% DMSO reaction buffer, 3 μL of 42 nM WDR5, 3 μL of MLL1 polypeptide, 3 μL of Anti-6His-Eu cryptate and streptavidin-APC). Blank group (1 μL reaction buffer with 5% DMSO, 3 μL reaction buffer, 3 μL MLL1 polypeptide, 3 μL Anti-6His-Eu cryptate and streptavidin-APC). The test data was calculated according to the signal ratio of two beams of fluorescence at different wavelengths: (665 nm signal/620 nm signal)*10000. […] The IC50 value was calculated using XLfit software.

MV4-11 cells = experiment: MV4-11 cell proliferation inhibition experiment (CellTiter-Glo); type: cell-based; details: Homo sapiens, 144 h, 6 days, read-out: cell proliferation inhibitory activity
Experimental: Test Example 2: MV4-11 Cell (ATCC: CRL-9591) Proliferation Inhibition Experiment
ATP in living cells was quantitatively detected by CellTiter-Glo (Promega-G7573) Luminescence Cell Viability Assay Kit to determine the effect of the compounds to be tested on cell proliferation. • Step 1: MV4-11 cells were seeded in 96-well plates (Greiner-655098) at a density of 1,500 cells per well with a volume of 140 μL per well; Cell culture medium components included RPM11640 (Gibco-A10491-01)+10% FBS (Gibco-10099-141C)+1% Penicillin-Streptomycin (5,000 U/mL, Gibco-15070-063). • Step 2: On the day of cell seeding, the cells were treated with the compound to be tested. The compound to be tested was diluted with a 3-fold gradient, and a total of 9 concentration gradients were set. DMSO (Sigma, D2650) with 0.5% final concentration or a DMSO solution containing the compound to be tested was added per well with 2 or 3 replicate wells at each concentration point. The plates were incubated at 37° C. in a 5% CO2 incubator (Thermo Scientific Steri-Cycle 371) for 6 days. • Step 3: The cell viability in the control and treatment groups was detected with CellTiter-Glo Luminescent Cell Viability Assay Kit. 50 μL of CellTiter-Glo was added per well, mixed well, and incubated for 15 min at room temperature protected from light. According to the kit instructions, the chemiluminescence signal was read using a multifunctional microplate reader (EnVision, PerkinElmer).
The inhibition percentage (%) of the compound at each concentration point was calculated by the following formula:
Inhibition Percentage (%)=(1−signal value of the group treated with the compound/signal value of the group treated with DMSO)*100.
The value of cell proliferation semi-inhibitory concentration IC50 was calculated using GraphPad Prism software, and the results are shown in Table 2.

pIC50 [1]	pIC50 (MV4-11 cells)	SMILES
> 7.70	> 7.30	CCOc1cc([C@H](C)N2CC3(CC3(F)F)c3c(CN(C)C)cc(Cn4ccnc4NC)cc3C2=O)ncc1C#N (stereo in doubt) [Compound 95, 6-(-1-(5′-((dimethylamino)methyl)-2,2-difluoro-7′-((2-(methylamino)-1H-imidazol-1-yl)methyl)-1′-one-1′H-spiro[cyclopropan-1,4′-isoquinoline]-2′(3′H)-yl)ethyl)-4-ethoxynicotinonitrileformate salt]
> 7.70	> 7.30	CCOc1cc([C@@H](C)N2C[C@]3(CC3(F)F)c3c(CN(C)C)cc(Cn4ccnc4NC)cc3C2=O)ncc1F (stereo in doubt) [Compound 96, (S)-5′-((dimethylamino)methyl)-2′-((R)-1-(4-ethoxy-5-fluoropyridine-2-yl)ethyl)-2,2-difluoro-7′-((2-(methylamino)-1H imidazol-1-yl)methyl)-2′, 3′-dihydro-1′H-spiro[cyclopropan-1,4′-isoquinoline]-1′-one]
> 7.70	6.70 to 7.30	CNc1nccn1Cc1cc(CN(C)C)c2c(c1)C(=O)N([C@@H](C)c1cc(OC)c(C#N)cn1)CC21CC1 [Compound 2]
> 7.70	> 7.30	CNc1nccn1Cc1cc(CN(C)C)c2c(c1)C(=O)N([C@@H](C)c1cc(OC)c(F)cn1)CC21CC1 [Compound 5]
> 7.70	6.70 to 7.30	CCOc1cc([C@H](C)N2CC3(CC3)c3c(CN4CCOCC4)cc(Cn4ccnc4NC)cc3C2=O)ncc1F [Compound 8]
> 7.70	6.70 to 7.30	CCOc1cc([C@H](C)N2CC3(CC3)c3c(CN(CC)CC)cc(Cn4ccnc4NC)cc3C2=O)ncc1F [Compound 10, (S)-5′-(diethylamino)methyl)-2′-(1-(4-ethoxy-5-fluoropyridine-2-ylethyl)-7′-((2-(methylamino)-1H-imidazol-1-yl)methyl)-2′,3′-dihydro-1′H-spiro[cyclopropan-1,4′-isoquinoline]-1′-one]
> 7.70	6.70 to 7.30	CNc1nccn1Cc1cc(CN(C)C)c2c(c1)C(=O)N([C@@H](C)c1cc(OC3CC3)c(F)cn1)CC21CC1 [Compound 14]
> 7.70	> 7.30	CCOc1cc([C@H](C)N2CC3(CC3)c3c(CN4CCN(CC)CC4)cc(Cn4ccnc4NC)cc3C2=O)ncc1F [Compound 57]
> 7.70	> 7.30	CCOc1cc([C@H](C)N2CC3(CC3)c3c(CN4CCOCC4)cc(Cn4ccnc4NC)cc3C2=O)ncc1C#N [Compound 59]

The remaining lines, values behind:

SMILES	pIC50 [1]	pIC50 (MV4-11 cells)
CCOc1cc([C@H](C)N2C[C@@]3(CC3(F)F)c3c(CN4CCN(C)CC4)cc(Cn4ccnc4NC)cc3C2=O)ncc1F (single isomer, unassigned) [Compound 92, 2′-(-1-(4-ethoxy-5-fluoropyridine-2-yl)ethyl)-2,2-difluoro-7′-((2-(methylamino)-1H-imidazol-1-yl)methyl)-5′-((4-methylpiperazin-1-yl)methyl)-2′,3′-dihydro-1′H-spiro[cyclopropan-1,4′-isoquinoline]-1′-one formate salt]	> 7.70	6.70 to 7.30
CCOc1cc([C@@H](C)N2C[C@@]3(CC3(F)F)c3c(CN4CCN(C)CC4)cc(Cn4ccnc4NC)cc3C2=O)ncc1F (stereo in doubt) [Compound 93, 2′-(-1-(4-ethoxy-5-fluoropyridine-2-yl)ethyl)-2,2-difluoro-7′-((2-(methylamino)-1H-imidazol-1-yl)methyl)-5′-((4-methylpiperazin-1-yl)methyl)-2′,3′-dihydro-1′H-spiro[cyclopropan-1,4′-isoquinoline]-1′-one formate salt]	> 7.70	> 7.30
CCOc1cc([C@H](C)N2CC3(CC3)c3c(CN(C)C)cc(Cn4ccnc4NC)cc3C2=O)ncc1C#N [Compound 3]	> 7.70	> 7.30
CNc1nccn1Cc1cc(CN(C)C)c2c(c1)C(=O)N([C@@H](C)c1cnc(F)c(OC)c1)CC21CC1 [Compound 4]	> 7.70	> 7.30
CCOc1cc([C@H](C)N2CC3(CCC3)c3c(CN(C)C)cc(Cn4ccnc4NC)cc3C2=O)ncc1F [Compound 18, (S)-5′-((dimethylamino)methyl)-2′-(1-(4-ethoxy-5-fluoropyridine-2-yl)ethyl)-7′-((2-(methylamino)-1H-imidazol-1-yl)methyl)-2′,3′-dihydro-1′H-spiro[cyclobutan-1,4′-isoquinoline]-1′-one]	> 7.70	6.70 to 7.30
CCOc1cc([C@H](C)N2CC3(CCCC3)c3c(CN(C)C)cc(Cn4ccnc4NC)cc3C2=O)ncc1F [Compound 19, (S)-5′-((dimethylamino)methyl)-2′-(1-(4-ethoxy-5-fluoropyridine-2-yl)ethyl)-7′-((2-(methylamino)-1H-imidazol-1-yl)methyl)-2′,3′-dihydro-1′H-spiro[cyclopentan-1,4′-isoquinoline]-1′-one]	> 7.70	> 7.30
CCOc1cc([C@H](C)N2CC3(CC3)c3c(CN4CCN(C)CC4)cc(Cn4ccnc4NC)cc3C2=O)ncc1F [Compound 37]	> 7.70	> 7.30
CCOc1cc(C(C)N2CC3(CC3)c3c(CN(C)CC(F)(F)F)cc(Cn4ccnc4NC)cc3C2=O)ncc1F (centres unmarked) [Compound 41, 2′-(1-(4-ethoxy-5-fluoropyridine-2-yl)ethyl)-5′-((methyl(2,2,2-trifluoroethyl)amino)methyl)-7′-((2-(methylamino)-1H-imidazol-1-yl)methyl)-2′,3′-dihydro-1′H-spiro[cyclopropan-1,4′-isoquinoline]-1′-one]	7.00 to 7.70	6.70 to 7.30
CNc1nccn1Cc1cc(CN(C)C)c2c(c1)C(=O)N([C@@H](C)c1cc(OC(F)F)c(F)cn1)CC21CC1 [Compound 55]	> 7.70	6.70 to 7.30
CNc1nccn1Cc1cc(CN2CC(F)(F)C2)c2c(c1)C(=O)N([C@@H](C)c1cc(OC)c(C#N)cn1)CC21CC1 [Compound 61]	> 7.70	6.70 to 7.30
CCOc1cc([C@H](C)N2CC3(CC3)c3c(CN4CCN(CC(F)(F)F)CC4)cc(Cn4ccnc4NC)cc3C2=O)ncc1C#N [Compound 63, (S)-4-ethoxy-6-(1-(7′-((2-(methylamino)-1H-imidazol-1-yl)methyl)-1′-one-5′-((4-(2,2,2-trifluoroethyl)piperazin-1-yl)methyl)-1′H-spiro[cyclopropan-1,4′-isoquinoline]-2′(3′H)-yl)ethyl)nicotinonitrile]	> 7.70	6.70 to 7.30
CCOc1cc([C@H](C)N2CC3(CC3)c3c(CN4CCN(C5CC5)CC4)cc(Cn4ccnc4NC)cc3C2=O)ncc1F [Compound 64, (S)-5′-((4-cyclopropylpiperazin-1-yl)methyl)-2′-(1-(4-ethoxy-5-fluoropyridine-2-yl)ethyl)-7′-((2-(methylamino)-1H-imidazol-1-yl)methyl)-2′,3′-dihydro-1′H-spiro[cyclopropan-1,4′-isoquinoline]-1′-one]	> 7.70	6.70 to 7.30
CCOc1cc(CN2CC3(CC3)c3c(CN4CCN(C)CC4)cc(Cn4ccnc4NC)cc3C2=O)nn1C [Compound 66, 2′-((5-ethoxy-1-methyl-1H-pyrazole-3-yl)methyl)-7′-((2-(methylamino)-1H-imidazol-1-yl)methyl)-5′-((4-methylpiperazin-1-yl)methyl)-2′,3′-dihydro-1′H-spiro[cyclopropan-1,4′-isoquinoline]-1′-one]	> 7.70	> 7.30
